Like-named read-outs stand apart in the source and are kept apart here. Where a SMILES comes first, the peptide text is derived from it.
Tests used:
[1] = system: MDRAB 12035; experiment: MIC of antibiotic during combined treatment with antimicrobial peptide; type: cell-based, Acinetobacter baumannii
Outline: (§1)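 Antibiotic MIC came from antibiotic dilutions added to bacteria (2×10^6 CFU/ml, MH medium) already combined with peptide serially diluted 2:1 from its own MIC. Swapping the roles of the two agents gave the peptide MIC.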

[2] = system: E. coli; type: cell-based, Escherichia coli; conditions: E. coli
Outline: as §1

[3] = system: MDREC 1229; type: cell-based, Escherichia coli
Outline: as §1

[4] = system: A. baumannii; experiment: MIC of antimicrobial peptide during combined treatment with antibiotic; type: cell-based, Acinetobacter baumannii
Outline: as §1

[5] = system: MDRAB 12035; experiment: as above; type: cell-based, Acinetobacter baumannii
Outline: as §1

[6] = peptide treatment concentration 2 μg/ml
[7] = peptide treatment concentration 4 μg/ml
[8] = peptide treatment concentration 6 μg/ml
[9] = peptide treatment concentration 8 μg/ml
[10] = peptide treatment concentration 16 μg/ml
[11] = peptide treatment concentration 32 μg/ml
[12] = peptide treatment concentration 64 μg/ml
[13] = linezolid 64 μg/ml (Conc./MIC 1/8)
[14] = linezolid 512 μg/ml (Conc./MIC 1)
[15] = vancomycin 512 μg/ml (Conc./MIC 1/2)
[16] = vancomycin 1024 μg/ml (Conc./MIC 1)
[17] = erythromycin 4 μg/ml (Conc./MIC 1/8)
[18] = erythromycin 8 μg/ml (Conc./MIC 1/4)
[19] = erythromycin 16 μg/ml (Conc./MIC 1/2)
[20] = erythromycin 32 μg/ml (Conc./MIC 1)

CC[C@H](C)[C@H](NC(=O)[C@H](CCCCN)NC(=O)[C@H](Cc1c[nH]c2ccccc12)NC(=O)[C@@H](N)CCCNC(=N)N)C(=O)N[C@@H](Cc1ccccc1)C(=O)N[C@@H](CCCCN)C(=O)N[C@@H](CCCCN)C(=O)N[C@H](C(=O)N1CCC[C@H]1C(=O)N[C@@H](CCCCN)C(=O)N[C@@H](Cc1ccccc1)C(=O)N[C@@H](CC(C)C)C(=O)N[C@@H](Cc1c[nH]cn1)C(=O)N[C@@H](CCC(=O)O)C(=O)N[C@@H](C)C(=O)N[C@@H](CCCCN)C(=O)N[C@@H](CCCCN)C(=O)N[C@@H](Cc1ccccc1)C(N)=O)[C@@H](C)CC [PapMA-11, RWK IFK KIP KFL HEA KKF-NH2] (H-RWKIFKKIPKFLHEAKKF-NH2; N-terminus assumed)
32 µg/mL: Linezolid MIC during combined treatment with peptide [1, 8] | Vancomycin MIC during combined treatment with peptide [1, 8] | Vancomycin MIC during combined treatment with peptide [1, 9]
8 µg/mL: Erythromycin MIC during combined treatment with peptide [1, 7] | Linezolid MIC during combined treatment with peptide [1, 10] | Peptide MIC during treatment with antibiotic [3, 13] | Peptide MIC during treatment with antibiotic ([3]; vancomycin […] (Conc./MIC 1/8)) | Peptide MIC during treatment with antibiotic ([4]; linezolid 32 μg/ml (Conc./MIC 1/8))
0.5 µg/mL: Erythromycin MIC during combined treatment with peptide [1, 10] | Peptide MIC during treatment with antibiotic ([4]; vancomycin […] (Conc./MIC 1/4))
0.25 µg/mL: Peptide MIC during treatment with antibiotic [4, 15]
0.125 µg/mL: Erythromycin MIC during combined treatment with peptide [1, 11]
0 µg/mL: Erythromycin MIC during combined treatment with peptide [1, 12] | Linezolid MIC during combined treatment with peptide [1, 12] | Vancomycin MIC during combined treatment with peptide [1, 12] | Peptide MIC ([2]; with Erythromycin […] (Conc./MIC 1)) | Peptide MIC ([2]; with Linezolid […] (Conc./MIC 1)) | Peptide MIC ([2]; with Vancomycin 1024 μg/ml (Conc./MIC 1)) | Peptide MIC during treatment with antibiotic ([3]; erythromycin […] (Conc./MIC 1)) | Peptide MIC during treatment with antibiotic [3, 14] | Peptide MIC during treatment with antibiotic [4, 20] | Peptide MIC during treatment with antibiotic ([4]; linezolid […] (Conc./MIC 1)) | Peptide MIC during treatment with antibiotic [4, 16] | Peptide MIC during treatment with erythromycin [5, 20] | Peptide MIC during treatment with linezolid [5, 14]
64 µg/mL: Linezolid MIC during combined treatment with peptide [1, 7] | Vancomycin MIC during combined treatment with peptide [1, 7]
128 µg/mL: Linezolid MIC during combined treatment with peptide [1, 6] | Vancomycin MIC during combined treatment with peptide [1, 6]
4 µg/mL: Vancomycin MIC during combined treatment with peptide [1, 11] | Peptide MIC during treatment with antibiotic ([3]; erythromycin 32 μg/ml (Conc./MIC 1/8)) | Peptide MIC during treatment with antibiotic ([3]; linezolid […] (Conc./MIC 1/4)) | Peptide MIC during treatment with antibiotic ([3]; vancomycin […] (Conc./MIC 1/4)) | Peptide MIC during treatment with antibiotic [4, 17] | Peptide MIC during treatment with antibiotic [4, 18] | Peptide MIC during treatment with antibiotic ([4]; linezolid 64 μg/ml (Conc./MIC 1/4)) | Peptide MIC during treatment with erythromycin [5, 17] | Peptide MIC during treatment with erythromycin [5, 18] | Peptide MIC during treatment with linezolid [5, 13]
16 µg/mL: Linezolid MIC during combined treatment with peptide [1, 9] | Vancomycin MIC during combined treatment with peptide [1, 10]
2 µg/mL: Erythromycin MIC during combined treatment with peptide [1, 8] | Linezolid MIC during combined treatment with peptide [1, 11] | Peptide MIC during treatment with antibiotic ([3]; erythromycin 64 μg/ml (Conc./MIC 1/4)) | Peptide MIC during treatment with antibiotic ([3]; linezolid […] (Conc./MIC 1/2)) | Peptide MIC during treatment with antibiotic [3, 15] | Peptide MIC during treatment with antibiotic [4, 19] | Peptide MIC during treatment with antibiotic ([4]; linezolid […] (Conc./MIC 1/2)) | Peptide MIC during treatment with antibiotic ([4]; vancomycin […] (Conc./MIC 1/8)) | Peptide MIC during treatment with erythromycin [5, 19] | Peptide MIC during treatment with linezolid ([5]; linezolid […] (Conc./MIC 1/2)) | Peptide MIC during treatment with linezolid ([5]; linezolid […] (Conc./MIC 1/4)) | Peptide MIC during treatment with vancomycin ([5]; vancomycin […] (Conc./MIC 1/4)) | Peptide MIC during treatment with vancomycin ([5]; vancomycin […] (Conc./MIC 1/8))
1 µg/mL: Erythromycin MIC during combined treatment with peptide [1, 9] | Peptide MIC during treatment with antibiotic ([3]; erythromycin […] (Conc./MIC 1/2)) | Peptide MIC during treatment with antibiotic [3, 16] | Peptide MIC during treatment with vancomycin [5, 15] | Peptide MIC during treatment with vancomycin [5, 16]

— US11214594B2, “Antimicrobial peptide having synergistic antibacterial effect with antibiotics on multidrug resistant bacteria, and use thereof” (priority 2016, dated 2022)
